Legend:
[1] = tested on: 6β- and 12α-hydroxylation of testosterone; assay: testosterone hydroxylation (HPLC) in African clawed frog primary hepatocytes; assay type: cell-based, Xenopus laevis; conditions: relative to vehicle control
Procedure: Xenopus laevis primary hepatocytes were cultured by a protocol adapted from a published report. Frogs are sacrificed with MS-222, rinsed with 70% ethanol, and the liver lobes perfused via the heart, initially with 375 mL Barth (88 mM NaCl, 1 mM K2SO4, and 10 mM HEPES-NaOH, pH 7.4) containing 0.82 mM MgCl2 and 0.1 mg/mL heparin, and then with 25 mL Barth containing 2.22 mM Ca(NO3)2, 2.74 mM CaCl2, and 200 U/mL type I collagenase (Worthington Chemicals, Lakewood, NJ). Livers are minced to fine pieces in 12.5 mL Barth-collagenase solution and then incubated for 10 min at room temperature, periodically disaggregating the liver pieces with a Pasteur pipette. The liver cells are then placed on a shaking incubator for 5 min at room temperature, followed by another 10 min of periodic pipetting to complete disaggregation. Cells are then filtered through a 130 μm Nitex nylon mesh (Fisher Scientific), following by spinning at 500 g for 5 min at 4°C. The supernatant is then aspirated and diluted to 50 mL with Barth plus MgCl2 and then allowed to settle while cooled in ice for 30 min. The supernatant is removed, and the cellular pellet is resuspended and subjected to one more round of nylon mesh filtration, dilution in Barth plus MgCl2, and settling while cooled in ice. The supernatant is removed and the remaining cells are washed once with Barth plus MgCl2 and then centrifuged at 500 g for 5 min at 4°C. The cells are then resuspended in 0.6 × Coon's Modified Ham's F-12 medium (Invitrogen) supplemented with 0.1 × Barth (88 mM NaCl, 1 mM K2SO4, 10 mM HEPES), 200 U/mL penicillin G, 100 μg/mL streptomycin sulfate, 2 mM glutamine, 0.2% glucose, and 10 μg/mL bovine insulin (Calbiochem), with the final pH adjusted to 7.5. […] Cells are cultured at 20°C in ambient atmosphere.
Testosterone metabolites were identified and quantitated by HPLC. […] The supernatant was then injected into the HPLC.

[2] = tested on: ethoxyresorufin O-deethylase (EROD) activity (CYP1A-like activity); assay: EROD assay in zebrafish primary hepatocytes; conditions: zebrafish primary hepatocytes; DIM at concentrations of 2 μM and greater
Procedure: (§1) The cells are cultured at 26°C in ambient atmosphere.

[3] = tested on: testosterone 6β-hydroxylation activity (CYP3A-like activity); assay: testosterone hydroxylation (HPLC) in zebrafish primary hepatocytes
Procedure: as §1
(§2) 100 μL of sample, calibration standard, or quality material standard were pipetted into separate microcentrifuge tubes and mixed with 100 μL of methanol. Samples were vortexed and centrifuged at 13,000 rpm for 4 min. The supernatant was then injected into the HPLC.
(§3) The flow rate was 1.2 mL/min and total run time was 25 min.

EROD activity = assay: EROD assay in sea lamprey primary hepatocytes; conditions: 24–48 hr exposure
[4] = tested on: testosterone 6β-hydroxylation; assay: testosterone hydroxylation (HPLC) in sea lamprey primary hepatocytes; assay type: cell-based; conditions: concentration ranges per compound
Procedure: as §2, §3

PXR = assay: zebrafish in vivo liver transcription, semi-quantitative RT-PCR: PXR; conditions: zebrafish, 15 mg/kg intraperitoneally, single dose, 48 hr
Procedure: (§4) Adult zebrafish were purchased from a commercial fish supplier and acclimatized for at least two-weeks in 20 L tanks with flow-through freshwater at 22°C. A single dose of 15 mg/kg of 5α-cyprinol, 5β-cyprinol 27-sulfate, 5α-scymnol or 5β-scymnol-27 sulfate, dissolved in saline, was injected intraperitoneally. A control group was injected with saline. After 48 hr, the animals were decapitated and livers of three fish (n = 5 each group) were removed, pooled and weighed, totalizing 15 fish per group. Fish were not fed throughout the experimental period. […].
(§5) To study the transcription of CYP3C1, ABCB5, PXR, GAPDH and β-actin genes in zebrafish, initial fragments of these genes were identified (Genbank: AW202769, Genbank: BQ284593, Genbank: AAM22215, Genbank: BC083506, Genbank: AF057040, respectively). The PCR primers for CYP3C1 were designed using MacVector Software and primers for MDR1 were designed using Primer 3 Software (Whitehead Institute for Biomedical Research; [75]). Primer pairs for amplifying CYP3C1 fragment were 5'-[…]-3' (sense) and 5'-[…]-3' (antisense) and for amplifying ABCB5 were 5'-[…]-3' (sense) and 5'-[…]-3' (antisense). The PCR primers for PXR were 5'-[…]-3' (sense) and 5'-[…]-3' (antisense), for amplifying GAPDH were 5'-[…]-3' (sense) and 5' […] 3' (antisense) and for β-actin were 5'-[…]-3' (sense) and 5'-[…]-3' (antisense). RNA was isolated using Trizol (Invitrogen) according to manufacturer's instructions. Purity and concentration of RNA of each sample were verified at 260 nm. The RNA integrity was checked by non-denaturing gel electrophoresis using 1 μg of total RNA in each sample.
(§6) Two micrograms of total RNA were reversed transcribed using Ominiscript RT Kit (Qiagen, Valencia, CA, USA). cDNA concentration was checked at 260 nm, and the amount adjusted to 1 μg to perform semi-quantitative RT-PCR. The expected size of the PXR, Cyp3C1, abcb5, GAPDH and β-actin fragments were 577, 477, 218, 234 and 550 bp, respectively. Biotools DNA polymerase (Biotools B&M Labs, S.A., Madrid, Spain) kit was used for the PCR reaction using a thermocycler Personal Mastercycler (Eppendörf) with the following PCR program: 5 cycles of 94°C for 5 s, 72°C for 35 s; 5 cycles of 94°C for 5 s, 70°C for 10 s, 72°C for 35 s; and 23, 24, 35, 15 and 24 cycles (PXR, Cyp3C1, abcb5, GAPDH and β-actin, respectively) of 94°C for 5 s, 61, 54, 48, 49 and 61°C for 10 s (PXR, Cyp3C1, abcb5, GAPDH and β-actin, respectively), and 72°C for 35 s. The PXR, CYP3C1, ABCB5 and GAPDH transcript levels were quantified using Gel-Quant™ (Multiplexed Biotechologies) and β-actin was used to normalize the data. The Shapiro-Wilk W test was used to evaluate normality. When data were parametric the analysis was performed using Student t test; otherwise Mann Whitney U test was applied. […]

Xenopus laevis VDR = molecular target: T1, Xenopus laevis VDR (Xenopus laevis, UniProt O13124); assay: luciferase reporter transactivation assay in HepG2-NTCP cells, GAL4/xlVDR LBD chimera with tk-UAS-Luc; assay type: cell-based; conditions: screening for activators, at least three concentrations of each drug
T1 sequence (O13124 90-422): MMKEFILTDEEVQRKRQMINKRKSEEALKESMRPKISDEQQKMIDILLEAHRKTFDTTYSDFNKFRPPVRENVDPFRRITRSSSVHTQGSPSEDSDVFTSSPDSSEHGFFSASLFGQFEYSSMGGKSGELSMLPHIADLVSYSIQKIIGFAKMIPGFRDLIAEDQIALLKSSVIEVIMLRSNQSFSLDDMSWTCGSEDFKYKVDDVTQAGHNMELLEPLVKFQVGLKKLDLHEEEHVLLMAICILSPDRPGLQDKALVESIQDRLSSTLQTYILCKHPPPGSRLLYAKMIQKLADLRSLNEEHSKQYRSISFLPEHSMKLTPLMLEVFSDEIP

[5] = tested on: glyceraldehyde 3-phosphate dehydrogenase (GAPDH); assay: zebrafish in vivo liver transcription, semi-quantitative RT-PCR: GAPDH; conditions: 15 mg/kg intraperitoneally, single dose, 48 hr
Procedure: Adult zebrafish were purchased from a commercial fish supplier and acclimatized for at least two-weeks in 20 L tanks with flow-through freshwater at 22°C. A single dose of 15 mg/kg of 5α-cyprinol, 5β-cyprinol 27-sulfate, 5α-scymnol or 5β-scymnol-27 sulfate, dissolved in saline, was injected intraperitoneally. A control group was injected with saline. After 48 hr, the animals were decapitated and livers of three fish (n = 5 each group) were removed, pooled and weighed, totalizing 15 fish per group. Fish were not fed throughout the experimental period.
as §5, with “The PCR primers for CYP3C1 were designed using MacVector Software and primers for MDR1 were designed using Primer 3 Software (Whitehead Institute for Biomedical Research; [75]).” left out, “Purity and concentration of RNA of each sample were verified at 260 nm.” left out
The PXR, CYP3C1, ABCB5 and GAPDH transcript levels were quantified using Gel-Quant™ (Multiplexed Biotechologies) and β-actin was used to normalize the data. The Shapiro-Wilk W test was used to evaluate normality. When data were parametric the analysis was performed using Student t test; otherwise Mann Whitney U test was applied.

Zebrafish VDR = molecular target: T2, Zebrafish VDR (Danio rerio, UniProt Q9PTN2); assay: luciferase reporter transactivation assay in HepG2-NTCP cells, GAL4/zfVDR LBD chimera with tk-UAS-Luc; assay type: cell-based; conditions: screening for activators, at least three concentrations of each drug
T2 sequence (Q9PTN2 121-453): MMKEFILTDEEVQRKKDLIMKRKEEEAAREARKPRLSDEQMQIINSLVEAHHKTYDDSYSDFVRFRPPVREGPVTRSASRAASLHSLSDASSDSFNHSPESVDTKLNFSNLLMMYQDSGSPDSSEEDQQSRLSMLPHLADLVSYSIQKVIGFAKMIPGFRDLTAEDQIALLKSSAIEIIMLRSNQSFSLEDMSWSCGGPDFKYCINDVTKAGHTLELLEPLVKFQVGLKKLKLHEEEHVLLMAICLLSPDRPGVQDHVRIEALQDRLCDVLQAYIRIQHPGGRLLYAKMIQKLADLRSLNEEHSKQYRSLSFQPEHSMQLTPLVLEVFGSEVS

[6] = tested on: MDR1 (tentatively classified as ABCB5 in zebrafish); assay: zebrafish in vivo liver transcription, semi-quantitative RT-PCR: MDR1; conditions: zebrafish, 15 mg/kg intraperitoneally, single dose, 48 hr
Procedure: as §4, §5, §6

β-actin = assay: zebrafish in vivo liver transcription, semi-quantitative RT-PCR: β-actin; conditions: zebrafish, 15 mg/kg intraperitoneally, single dose, 48 hr
Procedure: as §4, §5, §6

CYP3C1 = assay: zebrafish in vivo liver transcription, semi-quantitative RT-PCR: CYP3C1; conditions: zebrafish, 15 mg/kg intraperitoneally, single dose, 48 hr
Procedure: as §4, §5, §6

Sea lamprey VDR = molecular target: T3, Sea lamprey VDR (Petromyzon marinus, UniProt Q7ZZY9); assay type: cell-based; conditions: screening for activators, at least three concentrations of each drug
T3 sequence (Q7ZZY9 92-406): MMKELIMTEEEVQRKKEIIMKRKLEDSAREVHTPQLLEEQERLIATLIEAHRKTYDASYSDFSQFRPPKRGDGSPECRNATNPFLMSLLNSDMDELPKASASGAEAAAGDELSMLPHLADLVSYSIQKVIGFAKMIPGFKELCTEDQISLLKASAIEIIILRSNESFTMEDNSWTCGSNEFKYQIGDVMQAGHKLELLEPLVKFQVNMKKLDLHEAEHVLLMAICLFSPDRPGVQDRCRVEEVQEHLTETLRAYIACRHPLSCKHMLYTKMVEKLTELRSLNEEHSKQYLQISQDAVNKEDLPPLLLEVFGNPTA

zebrafish PXR = conditions: ref [29],[53]; cited from earlier work

Compound | effect on 6β- and 12α-hydroxylation of testosterone [1] | effect on EROD activity (EROD activity) | effect on testosterone 6β-hydroxylation [4] | Effect on Xenopus laevis VDR (Xenopus laevis VDR) | Effect on zebrafish VDR (Zebrafish VDR) | Effect on sea lamprey VDR (Sea lamprey VDR) | also measured
C=C1/C(=C\C=C2/CCC[C@]3(C)[C@@H]([C@H](C)CCCC(C)(C)O)CC[C@@H]23)C[C@@H](O)C[C@@H]1O [1,25-(OH)2-Vitamin D3, 1α,25-(OH)2-vitamin D3] | neither activity was substantially increased relative to vehicle control | did not alter EROD activity | None of these compounds produced significant increases in testosterone 6β-hydroxylation |  |  |  | effect on EROD activity [2]: found not to affect EROD activity; effect on 6β-hydroxylation of testosterone ([3]; zebrafish primary hepatocytes, calcitriol 1–500 nM): did not increase 6β-hydroxylation of testosterone
CCOC(=O)c1cccc(N)c1 [3-aminoethylbenzoate] | neither activity was substantially increased relative to vehicle control |  |  |  |  |  | 
CC(CCC(O)C(CO)COS(=O)(=O)O)C1CCC2C3C(O)CC4CC(O)CCC4(C)C3CC(O)C12C (stereo not drawn) [5β-scymnol 27-sulfate] |  |  |  | No effect | No effect | No effect | liver transcription of PXR (PXR): 0.75 ± 0.33 arbitrary units normalized to β-actin; liver transcription of GAPDH [5]: 1.08 ± 0.50 arbitrary units normalized to β-actin; liver transcription of MDR1 (ABCB5) [6]: 1.50 ± 0.58 arbitrary units normalized to β-actin; liver transcription of β-actin (β-actin): 39.3 ± 17.5 arbitrary units; liver transcription of CYP3C1 (CYP3C1): 1.33 ± 0.58 arbitrary units normalized to β-actin; activity at recombinant zebrafish PXR (zebrafish PXR): weaker activator of recombinant zebrafish PXR
C[C@@H]1C[C@H]2[C@@H]3CCC4=CC(=O)C=C[C@]4(C)[C@@]3(F)[C@@H](O)C[C@]2(C)[C@@]1(O)C(=O)CO [Dexamethasone] | neither activity was substantially increased relative to vehicle control |  | None of these compounds produced significant increases in testosterone 6β-hydroxylation |  |  |  | 
C[C@@]12CCC[C@H]1[C@@H]1CC[C@H]3C[C@H](O)CC[C@]3(C)[C@H]1CC2 [androstanol, 5α-androstan-3α-ol] |  | did not alter EROD activity | None of these compounds produced significant increases in testosterone 6β-hydroxylation | No effect | No effect | No effect | EC50 ([3]; zebrafish): 20 ± 2.7 µM; maximal rate of testosterone 6β-hydroxylation ([3]; zebrafish primary hepatocytes, 48-hour exposure): 717 pmol/min/mg protein

From article PMC2263054, “Functional evolution of the vitamin D and pregnane X receptors” (BMC Evolutionary Biology, 2007)
